# Measurements published in patent US6992079B2, “Substituted 11-phenyl-dibenzazepine compounds useful for the treatment or prevention of diseases characterized by abnormal cell proliferation” (President Fellows of Harvard College, priority 1997, dated 2006).
# Read-outs that look alike come from different tables or passages of the source.
# Columns and labels:
# RPMI-8226 = experiment: In-Vitro Testing SRB panel: Leukemia; type: cell-based
# [1] = system: SU.86.86 pancreatic adenocarcinoma; experiment: Mouse xenograft tumor growth; type: in vivo, nude mice; conditions: SU.86.86 pancreatic adenocarcinoma mouse xenograft
# SK-MEL-5 = experiment: In-Vitro Testing SRB panel: Melanoma; type: cell-based
# SK-MEL-2B = experiment: In-Vitro Testing SRB panel: Melanoma; type: cell-based
# HCT-116 = experiment: In-Vitro Testing SRB panel: Colon Cancer; type: cell-based
# LOX IMVI = experiment: In-Vitro Testing SRB panel: Melanoma; type: cell-based
# SF-295 = experiment: In-Vitro Testing SRB panel: CNS Cancer; type: cell-based
# DU-145 = experiment: In-Vitro Testing SRB panel: Prostate Cancer; type: cell-based
# HS 578T = experiment: In-Vitro Testing SRB panel: Breast Cancer; type: cell-based; conditions: HS 578T
# MDA-N = experiment: In-Vitro Testing SRB panel: Breast Cancer; type: cell-based
# OVCAR-5 = experiment: In-Vitro Testing SRB panel: Ovarian Cancer; type: cell-based
# [2] = system: squamous cell carcinoma (KLN-205) cells; experiment: Tumor growth in murine squamous cell carcinoma model; type: in vivo, mouse; conditions: KLN-205; subcutaneous injection or oral administration of 80 mg/kg/day for 30 days
# MOLT-4 = experiment: In-Vitro Testing SRB panel: Leukemia; type: cell-based
# [3] = system: NIH 3T3 mouse fibroblast cells; experiment: Mitogenic assay (mitogen-induced cell proliferation); type: cell-based; conditions: Mus musculus, NIH3T3, 10 μM compound
# SR = experiment: In-Vitro Testing SRB panel: Leukemia; type: cell-based
# SNB-75 = experiment: In-Vitro Testing SRB panel: CNS Cancer; type: cell-based
# KM12 = experiment: In-Vitro Testing SRB panel: Colon Cancer; type: cell-based
# NCI-H23 = type: cell-based
# UACC-62 = experiment: In-Vitro Testing SRB panel: Melanoma; type: cell-based
# [4] = Homo sapiens, read-out: LC50 (the source's name)
smiles,measurement,setting,value
COc1ccc2c(c1)CN(C(=O)c1ccc([N+](=O)[O-])cc1)c1ccc(Cl)cc1C2c1ccccc1Cl (stereo not drawn) [Compound 30],GI50,"RPMI-8226; Homo sapiens, RPMI-8226",0.953 µM
same,CC50,"RPMI-8226; Homo sapiens, RPMI-8226, read-out: LC50 (the source's name)",> 100 µM
same,TGI,RPMI-8226; RPMI-8226,>1.00E−04 Molar
same,Percent Growth,"RPMI-8226; RPMI-8226, Log10 concentration −4.0 Molar",36%
same,Percent Growth,"RPMI-8226; RPMI-8226, Log10 concentration −5.0 Molar",30%
same,Percent Growth,"RPMI-8226; RPMI-8226, Log10 concentration −6.0 Molar",49%
same,Percent Growth,"RPMI-8226; RPMI-8226, Log10 concentration −7.0 Molar",100%
same,Percent Growth,"RPMI-8226; RPMI-8226, Log10 concentration −8.0 Molar",86%
same,tumor growth,[1],showed inhibition of tumor growth
same,GI50,"SK-MEL-5; Homo sapiens, SK-MEL-5",3.95 µM
same,CC50,"SK-MEL-5; Homo sapiens, SK-MEL-5, read-out: LC50 (the source's name)",> 100 µM
same,TGI,SK-MEL-5; SK-MEL-5,>1.00E−04 Molar
same,Percent Growth,"SK-MEL-5; SK-MEL-5, Log10 concentration −4.0 Molar",12%
same,Percent Growth,"SK-MEL-5; SK-MEL-5, Log10 concentration −5.0 Molar",26%
same,Percent Growth,"SK-MEL-5; SK-MEL-5, Log10 concentration −6.0 Molar",85%
same,Percent Growth,"SK-MEL-5; SK-MEL-5, Log10 concentration −7.0 Molar",90%
same,Percent Growth,"SK-MEL-5; SK-MEL-5, Log10 concentration −8.0 Molar",93%
same,GI50,"SK-MEL-2B; Homo sapiens, SK-MEL-28",> 100 µM
same,CC50,"SK-MEL-2B; Homo sapiens, SK-MEL-28, read-out: LC50 (the source's name)",> 100 µM
same,TGI,SK-MEL-2B; SK-MEL-28,>1.00E−04 Molar
same,Percent Growth,"SK-MEL-2B; SK-MEL-28, Log10 concentration −4.0 Molar",65%
same,Percent Growth,"SK-MEL-2B; SK-MEL-28, Log10 concentration −5.0 Molar",70%
same,Percent Growth,"SK-MEL-2B; SK-MEL-28, Log10 concentration −6.0 Molar",86%
same,Percent Growth,"SK-MEL-2B; SK-MEL-28, Log10 concentration −7.0 Molar",100%
same,Percent Growth,"SK-MEL-2B; SK-MEL-28, Log10 concentration −8.0 Molar",101%
same,TGI,HCT-116; HCT-116,1.00E−04 Molar
same,Percent Growth,"HCT-116; HCT-116, Log10 concentration −4.0 Molar",22%
same,Percent Growth,"HCT-116; HCT-116, Log10 concentration −5.0 Molar",17%
same,Percent Growth,"HCT-116; HCT-116, Log10 concentration −6.0 Molar",63%
same,Percent Growth,"HCT-116; HCT-116, Log10 concentration −7.0 Molar",90%
same,Percent Growth,"HCT-116; HCT-116, Log10 concentration −8.0 Molar",97%
same,GI50,"HCT-116; Homo sapiens, HCT-116",1.91 µM
same,CC50,"HCT-116; Homo sapiens, HCT-116, read-out: LC50 (the source's name)",> 100 µM
same,TGI,LOX IMVI,>1.00E−04 Molar
same,GI50,LOX IMVI; Homo sapiens,4.3 µM
same,CC50,LOX IMVI; [4],> 100 µM
same,Percent Growth,LOX IMVI; Log10 concentration −4.0 Molar,35%
same,Percent Growth,LOX IMVI; Log10 concentration −5.0 Molar,26%
same,Percent Growth,LOX IMVI; Log10 concentration −6.0 Molar,91%
same,Percent Growth,LOX IMVI; Log10 concentration −7.0 Molar,103%
same,Percent Growth,LOX IMVI; Log10 concentration −8.0 Molar,98%
same,GI50,"SF-295; Homo sapiens, SF-295",6.49 µM
same,CC50,"SF-295; Homo sapiens, SF-295, read-out: LC50 (the source's name)",> 100 µM
same,TGI,SF-295; SF-295,>1.00E−04 Molar
same,Percent Growth,"SF-295; SF-295, Log10 concentration −4.0 Molar",32%
same,Percent Growth,"SF-295; SF-295, Log10 concentration −5.0 Molar",41%
same,Percent Growth,"SF-295; SF-295, Log10 concentration −6.0 Molar",88%
same,Percent Growth,"SF-295; SF-295, Log10 concentration −7.0 Molar",104%
same,Percent Growth,"SF-295; SF-295, Log10 concentration −8.0 Molar",93%
same,TGI,DU-145; DU-145,>1.00E−04 Molar
same,Percent Growth,"DU-145; DU-145, Log10 concentration −4.0 Molar",31%
same,Percent Growth,"DU-145; DU-145, Log10 concentration −5.0 Molar",38%
same,Percent Growth,"DU-145; DU-145, Log10 concentration −6.0 Molar",95%
same,Percent Growth,"DU-145; DU-145, Log10 concentration −7.0 Molar",98%
same,Percent Growth,"DU-145; DU-145, Log10 concentration −8.0 Molar",98%
same,GI50,"DU-145; Homo sapiens, DU-145",6.24 µM
same,CC50,"DU-145; Homo sapiens, DU-145, read-out: LC50 (the source's name)",> 100 µM
same,TGI,HS 578T,>1.00E−04 Molar
same,Percent Growth,HS 578T; Log10 concentration −4.0 Molar,11%
same,Percent Growth,HS 578T; Log10 concentration −5.0 Molar,51%
same,Percent Growth,HS 578T; Log10 concentration −6.0 Molar,30%
same,Percent Growth,HS 578T; Log10 concentration −7.0 Molar,91%
same,Percent Growth,HS 578T; Log10 concentration −8.0 Molar,87%
same,CC50,HS 578T; [4],> 100 µM
same,TGI,MDA-N,>1.00E−04 Molar
same,CC50,MDA-N; [4],> 100 µM
same,Percent Growth,MDA-N; Log10 concentration −4.0 Molar,51%
same,Percent Growth,MDA-N; Log10 concentration −5.0 Molar,39%
same,Percent Growth,MDA-N; Log10 concentration −6.0 Molar,83%
same,Percent Growth,MDA-N; Log10 concentration −7.0 Molar,93%
same,Percent Growth,MDA-N; Log10 concentration −8.0 Molar,101%
same,GI50,"OVCAR-5; Homo sapiens, OVCAR-5",> 100 µM
same,CC50,"OVCAR-5; Homo sapiens, OVCAR-5, read-out: LC50 (the source's name)",> 100 µM
same,TGI,OVCAR-5; OVCAR-5,>1.00E−04 Molar
same,Percent Growth,"OVCAR-5; OVCAR-5, Log10 concentration −4.0 Molar",78%
same,Percent Growth,"OVCAR-5; OVCAR-5, Log10 concentration −5.0 Molar",86%
same,Percent Growth,"OVCAR-5; OVCAR-5, Log10 concentration −6.0 Molar",98%
same,Percent Growth,"OVCAR-5; OVCAR-5, Log10 concentration −7.0 Molar",106%
same,Percent Growth,"OVCAR-5; OVCAR-5, Log10 concentration −8.0 Molar",102%
same,tumor growth,[2],significantly inhibited tumor growth
same,GI50,"MOLT-4; Homo sapiens, MOLT-4",1.33 µM
same,CC50,"MOLT-4; Homo sapiens, MOLT-4, read-out: LC50 (the source's name)",> 100 µM
same,TGI,MOLT-4; MOLT-4,>1.00E−04 Molar
same,Percent Growth,"MOLT-4; MOLT-4, Log10 concentration −4.0 Molar",13%
same,Percent Growth,"MOLT-4; MOLT-4, Log10 concentration −5.0 Molar",23%
same,Percent Growth,"MOLT-4; MOLT-4, Log10 concentration −6.0 Molar",54%
same,Percent Growth,"MOLT-4; MOLT-4, Log10 concentration −7.0 Molar",89%
same,Percent Growth,"MOLT-4; MOLT-4, Log10 concentration −8.0 Molar",103%
same,inhibition at 10 µM,[3],99%
same,TGI,SR,>1.00E−04 Molar
same,GI50,SR; Homo sapiens,0.455 µM
same,CC50,SR; [4],> 100 µM
same,Percent Growth,SR; Log10 concentration −4.0 Molar,23%
same,Percent Growth,SR; Log10 concentration −5.0 Molar,12%
same,Percent Growth,SR; Log10 concentration −6.0 Molar,32%
same,Percent Growth,SR; Log10 concentration −7.0 Molar,85%
same,Percent Growth,SR; Log10 concentration −8.0 Molar,77%
same,GI50,"SNB-75; Homo sapiens, SNB-75",4.52 µM
same,CC50,"SNB-75; Homo sapiens, SNB-75, read-out: LC50 (the source's name)",> 100 µM
same,TGI,SNB-75; SNB-75,>1.00E−04 Molar
same,Percent Growth,"SNB-75; SNB-75, Log10 concentration −4.0 Molar",25%
same,Percent Growth,"SNB-75; SNB-75, Log10 concentration −5.0 Molar",32%
same,Percent Growth,"SNB-75; SNB-75, Log10 concentration −6.0 Molar",83%
same,Percent Growth,"SNB-75; SNB-75, Log10 concentration −7.0 Molar",103%
same,Percent Growth,"SNB-75; SNB-75, Log10 concentration −8.0 Molar",99%
same,GI50,"KM12; Homo sapiens, KM12",3.06 µM
same,CC50,"KM12; Homo sapiens, KM12, RM12, read-out: LC50 (the source's name)",> 100 µM
same,TGI,KM12; RM12,>1.00E−04 Molar
same,Percent Growth,"KM12; RM12, Log10 concentration −4.0 Molar",36%
same,Percent Growth,"KM12; RM12, Log10 concentration −5.0 Molar",41%
same,Percent Growth,"KM12; RM12, Log10 concentration −6.0 Molar",59%
same,Percent Growth,"KM12; RM12, Log10 concentration −7.0 Molar",91%
same,Percent Growth,"KM12; RM12, Log10 concentration −8.0 Molar",95%
same,GI50,"NCI-H23; Homo sapiens, NCI-H23",> 100 µM
same,CC50,"NCI-H23; Homo sapiens, NCI-H23, read-out: LC50 (the source's name)",> 100 µM
same,TGI,NCI-H23; NCI-H23,>1.00E−04 Molar
same,Percent Growth,"NCI-H23; NCI-H23, Log10 concentration −4.0 Molar",55%
same,Percent Growth,"NCI-H23; NCI-H23, Log10 concentration −5.0 Molar",60%
same,Percent Growth,"NCI-H23; NCI-H23, Log10 concentration −6.0 Molar",84%
same,Percent Growth,"NCI-H23; NCI-H23, Log10 concentration −7.0 Molar",97%
same,Percent Growth,"NCI-H23; NCI-H23, Log10 concentration −8.0 Molar",93%
same,GI50,"UACC-62; Homo sapiens, UACC-62",> 100 µM
same,CC50,"UACC-62; Homo sapiens, UACC-62, read-out: LC50 (the source's name)",> 100 µM
same,TGI,UACC-62; UACC-62,>1.00E−04 Molar
same,Percent Growth,"UACC-62; UACC-62, Log10 concentration −4.0 Molar",56%
same,Percent Growth,"UACC-62; UACC-62, Log10 concentration −5.0 Molar",52%
same,Percent Growth,"UACC-62; UACC-62, Log10 concentration −6.0 Molar",58%
same,Percent Growth,"UACC-62; UACC-62, Log10 concentration −7.0 Molar",93%
same,Percent Growth,"UACC-62; UACC-62, Log10 concentration −8.0 Molar",97%
